Results taken from ChEMBL document CHEMBL4311959, “Discovery of a potent p38α/MAPK14 kinase inhibitor: Synthesis, in vitro/in vivo biological evaluation, and docking studies” (Eur J Med Chem, 2019).

Tests used:
[1] = target: Mitogen-activated protein kinase 11 (Homo sapiens) (UniProt Q15759); test: Inhibition of human p38beta at 10 uM using MBP as substrate by [gamma-33P]-ATP assay relative to control
[2] = system: THP-1; test: Inhibition of LPS-induced TNFalpha production in human THP1 cells incubated for 1 hr followed by LPS stimulation and measured after 4 hrs by TR-FRET method; format: functional, cell-based
[3] = AUCinfinity in Sprague-Dawley rat at 10 mg/kg, po measured for each 30 mins by LC-MS/MS analysis; format: ADME, organism-based; set-up: dose 10 mg/kg, time infinity, route oral; details: in vivo
[4] = target: Fibroblast growth factor receptor 1 (Homo sapiens) (UniProt P11362); test: Inhibition of human FGFR1 at 10 uM using KKKSPGEYVNIEFG as substrate by [gamma-33P]-ATP assay relative to control
[5] = organism: Homo sapiens; test: Selectivity index, ratio of IC50 for human RAF1 to IC50 for human p38alpha
[6] = AUCinfinity in Sprague-Dawley rat at 10 mg/kg, iv measured for each 30 mins by LC-MS/MS analysis; format: ADME, organism-based; set-up: dose 10 mg/kg, time infinity, route intravenous; details: in vivo
[7] = Cmax in Sprague-Dawley rat at 10 mg/kg, po measured for each 30 mins by LC-MS/MS analysis; format: ADME, organism-based; set-up: dose 10 mg/kg, route oral; details: in vivo
[8] = target: Vascular endothelial growth factor receptor 2 (Homo sapiens) (UniProt P35968); test: Inhibition of human KDR at 10 uM using poly[Glu:Tyr] (4:1) as substrate by [gamma-33P]-ATP assay relative to control
[9] = target: Mitogen-activated protein kinase 3 (Homo sapiens) (UniProt P27361); test: Inhibition of human ERK1 at 10 uM using MBP as substrate by [gamma-33P]-ATP assay relative to control
[10] = target: Receptor tyrosine-protein kinase erbB-2 (Homo sapiens) (UniProt P04626); test: Inhibition of human ERBB2 at 10 uM using poly[Glu:Tyr] (4:1) as substrate by [gamma-33P]-ATP assay relative to control
[11] = target: RAF proto-oncogene serine/threonine-protein kinase (Homo sapiens, UniProt P04049); test: Inhibition of human RAF1 using MEK1 as substrate by [gamma-33P]-ATP assay
[12] = system: Rattus norvegicus; test: Antiinflammatory activity in Sprague-Dawley rat assessed as inhibition of carrageenan-induced paw edema at 50 mg/kg, ip administered 1 hr before carrageenan stimulation and measured after 3 hrs relative to control; format: functional
[13] = target: T1, Mitogen-activated protein kinase 14 (Homo sapiens, UniProt Q16539); test: Inhibition of human p38alpha at 10 uM using MBP as substrate by [gamma-33P]-ATP assay relative to control
[14] = target: T2, Hepatocyte growth factor receptor (Homo sapiens, UniProt P08581); test: Inhibition of human c-MET using KKKSPGEYVNIEFG as substrate by [gamma-33P]-ATP assay
[15] = organism: Homo sapiens; test: Selectivity index, ratio of IC50 for human BRAF V600E mutant to IC50 for human p38alpha
[16] = target: T2, Hepatocyte growth factor receptor; test: Inhibition of human c-MET at 10 uM using KKKSPGEYVNIEFG as substrate by [gamma-33P]-ATP assay relative to control
[17] = target: Proto-oncogene tyrosine-protein kinase Src (Homo sapiens) (UniProt P12931); test: Inhibition of human c-SRC at 10 uM using poly[Glu:Tyr] (4:1) as substrate by [gamma-33P]-ATP assay relative to control
[18] = Half life in Sprague-Dawley rat at 10 mg/kg, iv measured for each 30 mins by LC-MS/MS analysis; format: ADME, organism-based; details: in vivo
[19] = target: Dual specificity mitogen-activated protein kinase kinase 1 (Homo sapiens) (UniProt Q02750); test: Inhibition of human MEK1 at 10 uM using ERK2 as substrate by [gamma-33P]-ATP assay relative to control
[20] = target: Serine/threonine-protein kinase A-Raf (Homo sapiens) (UniProt P10398); test: Inhibition of human ARAF at 10 uM using MEK1 as substrate by [gamma-33P]-ATP assay relative to control
[21] = target: T1, Mitogen-activated protein kinase 14; test: Inhibition of recombinant Nanoluc-tagged p38alpha (unknown origin) expressed in HEK293 cells incubated for 2 to 3 mins by NanoBRET assay; format: cell-based
[22] = system: Serine/threonine-protein kinase B-raf (Homo sapiens), P15056 [V600E]; test: Inhibition of human BRAF V600E mutant at 10 uM using MEK1 (K97R) as substrate by [gamma-33P]-ATP assay relative to control
[23] = Stability in rat plasma assessed as remaining compound at 10 uM incubated for 30 mins by LC-MS analysis; format: ADME, cell-free; details: read-out: Stability
[24] = target: Dual specificity mitogen-activated protein kinase kinase 6 (Homo sapiens) (UniProt P52564); test: Inhibition of human MKK6 at 10 uM using p38alpha as substrate by [gamma-33P]-ATP assay relative to control
[25] = target: Proto-oncogene tyrosine-protein kinase ROS (Homo sapiens) (UniProt P08922); test: Inhibition of human ROS at 10 uM using KKKSPGEYVNIEFG as substrate by [gamma-33P]-ATP assay relative to control
[26] = target: Tyrosine-protein kinase JAK2 (Homo sapiens) (UniProt O60674); test: Inhibition of human JAK2 at 10 uM using poly[Glu:Tyr] (4:1) as substrate by [gamma-33P]-ATP assay relative to control
[27] = target: Tyrosine-protein kinase Fyn (Homo sapiens) (UniProt P06241); test: Inhibition of human FYN at 10 uM using poly[Glu:Tyr] (4:1) as substrate by [gamma-33P]-ATP assay relative to control
[28] = Clearance in Sprague-Dawley rat at 10 mg/kg, iv measured for each 30 mins by LC-MS/MS analysis; format: ADME, organism-based; details: in vivo
[29] = Stability in human plasma assessed as remaining compound at 10 uM incubated for 120 mins by LC-MS analysis; format: ADME, cell-free; details: read-out: Stability

T2 sequence (P08581 whole entry): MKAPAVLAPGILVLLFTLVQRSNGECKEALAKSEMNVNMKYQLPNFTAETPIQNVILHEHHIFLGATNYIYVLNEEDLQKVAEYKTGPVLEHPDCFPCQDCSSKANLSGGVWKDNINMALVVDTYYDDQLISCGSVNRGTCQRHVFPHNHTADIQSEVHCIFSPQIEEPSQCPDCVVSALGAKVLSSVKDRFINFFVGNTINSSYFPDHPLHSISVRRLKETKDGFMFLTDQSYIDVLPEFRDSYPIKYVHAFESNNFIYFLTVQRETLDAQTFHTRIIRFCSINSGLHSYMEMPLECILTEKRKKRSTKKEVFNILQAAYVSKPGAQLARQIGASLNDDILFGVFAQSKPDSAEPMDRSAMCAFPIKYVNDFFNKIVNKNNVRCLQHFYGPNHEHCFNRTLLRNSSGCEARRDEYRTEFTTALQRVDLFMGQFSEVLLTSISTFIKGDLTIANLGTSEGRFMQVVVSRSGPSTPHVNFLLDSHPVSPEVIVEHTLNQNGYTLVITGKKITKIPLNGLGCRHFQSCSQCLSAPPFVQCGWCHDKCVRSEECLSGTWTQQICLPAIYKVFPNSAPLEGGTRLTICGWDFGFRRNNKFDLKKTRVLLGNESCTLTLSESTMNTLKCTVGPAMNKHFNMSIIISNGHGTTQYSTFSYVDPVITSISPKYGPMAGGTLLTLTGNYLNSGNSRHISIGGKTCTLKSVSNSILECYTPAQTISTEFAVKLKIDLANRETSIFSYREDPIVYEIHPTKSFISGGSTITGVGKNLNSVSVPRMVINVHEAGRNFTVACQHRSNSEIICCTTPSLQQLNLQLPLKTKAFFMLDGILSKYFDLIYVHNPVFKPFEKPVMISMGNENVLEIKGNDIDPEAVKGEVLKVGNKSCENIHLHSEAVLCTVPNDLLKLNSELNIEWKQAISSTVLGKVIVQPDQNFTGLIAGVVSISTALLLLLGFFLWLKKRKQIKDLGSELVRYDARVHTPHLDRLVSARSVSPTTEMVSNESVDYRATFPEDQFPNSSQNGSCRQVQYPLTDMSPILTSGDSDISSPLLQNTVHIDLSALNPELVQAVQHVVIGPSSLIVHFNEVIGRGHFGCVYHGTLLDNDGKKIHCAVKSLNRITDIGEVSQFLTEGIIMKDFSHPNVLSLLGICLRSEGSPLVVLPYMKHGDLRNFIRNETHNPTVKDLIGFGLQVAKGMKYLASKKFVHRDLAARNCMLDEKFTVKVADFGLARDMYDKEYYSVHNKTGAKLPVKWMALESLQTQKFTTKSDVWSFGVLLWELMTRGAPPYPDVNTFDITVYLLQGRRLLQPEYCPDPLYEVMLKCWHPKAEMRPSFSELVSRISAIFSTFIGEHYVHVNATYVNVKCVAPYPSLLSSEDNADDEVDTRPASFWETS
T1 sequence (Q16539 whole entry): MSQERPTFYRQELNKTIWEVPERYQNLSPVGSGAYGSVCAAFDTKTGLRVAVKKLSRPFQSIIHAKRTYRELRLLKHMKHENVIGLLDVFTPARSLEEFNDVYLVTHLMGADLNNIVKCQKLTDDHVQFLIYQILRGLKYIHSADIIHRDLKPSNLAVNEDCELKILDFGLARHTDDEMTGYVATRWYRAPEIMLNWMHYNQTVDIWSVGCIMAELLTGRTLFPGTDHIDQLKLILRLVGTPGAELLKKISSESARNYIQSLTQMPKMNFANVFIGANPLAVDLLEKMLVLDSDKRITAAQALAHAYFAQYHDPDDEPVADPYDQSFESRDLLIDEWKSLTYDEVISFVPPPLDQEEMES
Sequence of Dual specificity mitogen-activated protein kinase kinase 1 (Homo sapiens) (Q02750 whole entry): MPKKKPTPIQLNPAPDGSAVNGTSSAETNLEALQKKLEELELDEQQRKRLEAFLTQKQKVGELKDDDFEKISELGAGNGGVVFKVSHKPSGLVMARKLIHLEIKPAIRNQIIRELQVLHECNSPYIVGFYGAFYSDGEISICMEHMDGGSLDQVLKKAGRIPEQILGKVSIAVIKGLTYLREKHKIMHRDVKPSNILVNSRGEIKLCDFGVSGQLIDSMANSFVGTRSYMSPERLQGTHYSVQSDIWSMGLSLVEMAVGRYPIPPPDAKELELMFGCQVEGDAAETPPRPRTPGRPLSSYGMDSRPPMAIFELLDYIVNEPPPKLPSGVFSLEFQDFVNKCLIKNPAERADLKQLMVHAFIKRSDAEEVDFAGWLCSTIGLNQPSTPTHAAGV
Sequence of Dual specificity mitogen-activated protein kinase kinase 6 (Homo sapiens) (P52564 whole entry): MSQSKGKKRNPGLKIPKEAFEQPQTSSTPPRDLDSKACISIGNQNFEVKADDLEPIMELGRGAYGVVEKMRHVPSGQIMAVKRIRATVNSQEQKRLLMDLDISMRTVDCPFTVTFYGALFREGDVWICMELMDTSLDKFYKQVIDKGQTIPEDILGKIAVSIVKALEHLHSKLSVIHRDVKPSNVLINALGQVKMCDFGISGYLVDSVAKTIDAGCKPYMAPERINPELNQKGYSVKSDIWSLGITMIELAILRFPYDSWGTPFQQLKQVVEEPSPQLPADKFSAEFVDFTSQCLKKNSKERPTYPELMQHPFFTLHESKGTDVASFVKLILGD
Sequence of Mitogen-activated protein kinase 3 (Homo sapiens) (P27361 whole entry): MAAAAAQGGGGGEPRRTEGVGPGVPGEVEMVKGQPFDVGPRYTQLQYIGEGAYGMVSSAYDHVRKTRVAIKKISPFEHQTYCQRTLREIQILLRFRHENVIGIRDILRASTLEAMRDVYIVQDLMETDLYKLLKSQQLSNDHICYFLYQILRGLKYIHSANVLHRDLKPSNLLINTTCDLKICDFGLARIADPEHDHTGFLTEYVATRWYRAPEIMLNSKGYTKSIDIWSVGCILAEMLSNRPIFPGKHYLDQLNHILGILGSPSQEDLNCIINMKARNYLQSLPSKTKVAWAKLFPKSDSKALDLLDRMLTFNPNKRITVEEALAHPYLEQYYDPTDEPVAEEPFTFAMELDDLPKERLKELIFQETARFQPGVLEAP
Sequence of Tyrosine-protein kinase Fyn (Homo sapiens) (P06241 2-537 limits assumed): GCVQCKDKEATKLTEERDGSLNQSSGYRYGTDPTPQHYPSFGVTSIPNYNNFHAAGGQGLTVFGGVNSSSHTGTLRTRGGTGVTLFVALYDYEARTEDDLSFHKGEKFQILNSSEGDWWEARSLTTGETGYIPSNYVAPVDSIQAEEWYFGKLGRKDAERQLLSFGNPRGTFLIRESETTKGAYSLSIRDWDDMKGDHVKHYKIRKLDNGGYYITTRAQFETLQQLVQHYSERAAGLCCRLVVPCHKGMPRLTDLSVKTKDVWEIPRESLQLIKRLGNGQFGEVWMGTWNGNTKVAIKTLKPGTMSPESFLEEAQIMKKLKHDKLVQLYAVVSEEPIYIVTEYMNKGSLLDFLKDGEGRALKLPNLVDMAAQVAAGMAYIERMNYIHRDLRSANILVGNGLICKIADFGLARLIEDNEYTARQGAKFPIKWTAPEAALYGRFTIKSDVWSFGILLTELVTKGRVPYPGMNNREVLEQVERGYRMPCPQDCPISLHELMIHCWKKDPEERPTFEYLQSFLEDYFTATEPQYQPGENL
Sequence of RAF proto-oncogene serine/threonine-protein kinase (P04049 whole entry): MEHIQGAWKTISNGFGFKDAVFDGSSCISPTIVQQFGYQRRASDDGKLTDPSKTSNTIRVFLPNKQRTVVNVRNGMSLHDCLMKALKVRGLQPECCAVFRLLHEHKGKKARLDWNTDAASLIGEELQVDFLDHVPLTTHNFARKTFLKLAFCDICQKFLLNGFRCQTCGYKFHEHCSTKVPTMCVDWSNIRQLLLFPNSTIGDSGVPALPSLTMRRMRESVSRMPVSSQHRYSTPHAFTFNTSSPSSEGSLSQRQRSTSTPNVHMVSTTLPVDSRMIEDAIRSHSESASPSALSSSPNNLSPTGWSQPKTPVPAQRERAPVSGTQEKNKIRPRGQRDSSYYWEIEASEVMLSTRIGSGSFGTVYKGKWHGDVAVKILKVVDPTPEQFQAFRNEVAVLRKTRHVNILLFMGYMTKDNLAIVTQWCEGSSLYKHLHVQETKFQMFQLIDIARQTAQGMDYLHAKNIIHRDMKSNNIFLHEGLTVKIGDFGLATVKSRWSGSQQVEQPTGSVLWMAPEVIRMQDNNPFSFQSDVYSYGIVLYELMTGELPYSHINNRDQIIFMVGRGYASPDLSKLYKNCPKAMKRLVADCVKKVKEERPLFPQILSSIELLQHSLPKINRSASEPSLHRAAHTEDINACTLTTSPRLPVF
Sequence of Mitogen-activated protein kinase 11 (Homo sapiens) (Q15759 whole entry): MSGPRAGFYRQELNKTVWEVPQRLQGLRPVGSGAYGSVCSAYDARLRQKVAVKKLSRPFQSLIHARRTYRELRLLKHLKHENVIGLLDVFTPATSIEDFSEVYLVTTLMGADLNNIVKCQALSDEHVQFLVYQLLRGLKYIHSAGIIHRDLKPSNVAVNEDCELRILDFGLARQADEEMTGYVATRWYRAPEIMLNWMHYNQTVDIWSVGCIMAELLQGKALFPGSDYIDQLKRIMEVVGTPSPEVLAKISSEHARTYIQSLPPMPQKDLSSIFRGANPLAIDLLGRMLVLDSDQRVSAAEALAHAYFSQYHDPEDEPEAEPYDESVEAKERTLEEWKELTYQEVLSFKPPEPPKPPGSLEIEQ
Sequence of Serine/threonine-protein kinase A-Raf (Homo sapiens) (P10398 whole entry): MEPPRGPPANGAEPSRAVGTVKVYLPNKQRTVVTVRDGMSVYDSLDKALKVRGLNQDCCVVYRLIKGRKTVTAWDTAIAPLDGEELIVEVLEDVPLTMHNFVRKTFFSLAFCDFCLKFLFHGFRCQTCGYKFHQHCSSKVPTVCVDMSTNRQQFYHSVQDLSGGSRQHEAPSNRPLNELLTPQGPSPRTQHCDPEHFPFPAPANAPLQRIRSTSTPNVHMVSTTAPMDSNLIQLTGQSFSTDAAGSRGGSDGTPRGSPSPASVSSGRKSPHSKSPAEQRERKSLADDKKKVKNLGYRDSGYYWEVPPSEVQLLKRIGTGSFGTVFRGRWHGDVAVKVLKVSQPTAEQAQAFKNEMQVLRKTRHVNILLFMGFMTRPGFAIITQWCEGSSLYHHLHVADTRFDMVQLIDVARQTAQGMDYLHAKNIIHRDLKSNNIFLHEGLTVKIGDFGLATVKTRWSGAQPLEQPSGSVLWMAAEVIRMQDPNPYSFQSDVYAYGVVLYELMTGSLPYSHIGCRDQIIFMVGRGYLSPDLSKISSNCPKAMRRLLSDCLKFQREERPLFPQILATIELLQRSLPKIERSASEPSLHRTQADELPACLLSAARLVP

**Q.** Which inhibition [1] does the source give for `COc1ccc(-c2nn(-c3cccc(NC(=O)c4cccc(C(F)(F)F)c4)c3)cc2-c2ccncc2)cc1Cl` here?
**A.** The inhibition was 63.2%.

**Q.** What about the IC50 [2] of the same compound?
**A.** Its IC50 is 58 nM.

**Q.** And the AUC(0-inf) [3]?
**A.** The AUC(0-inf) was 169 ng·h/mL.

**Q.** And the inhibition [4]?
**A.** Its inhibition is 24.4%.

**Q.** And the Ratio IC50 [5]?
**A.** Its Ratio IC50 is 15.3.

**Q.** And the AUC(0-inf) [6]?
**A.** The AUC(0-inf) was 1460 ng·h/mL.

**Q.** What about the Cmax [7] of the same compound?
**A.** Its Cmax is 33.2 ng/mL.

**Q.** And the inhibition [8]?
**A.** The inhibition was 13.2%.

**Q.** What about the inhibition [9] of the same compound?
**A.** The inhibition was -1.3%.

**Q.** What about the inhibition [10] of the same compound?
**A.** Its inhibition is 20.4%.

**Q.** And the IC50 [11]?
**A.** The IC50 was 336 nM.

**Q.** And the inhibition in vivo at 50 mg/kg [12]?
**A.** The inhibition in vivo at 50 mg/kg was 66.5%.

**Q.** And the inhibition [13]?
**A.** The inhibition was 94.6%.

**Q.** What about the IC50 [14] of the same compound?
**A.** Its IC50 is > 10000 nM.

**Q.** What about the Ratio IC50 [15] of the same compound?
**A.** Its Ratio IC50 is 7.18.

**Q.** And the inhibition [16]?
**A.** The inhibition was 77.7%.

**Q.** And the inhibition [17]?
**A.** The inhibition was 33.4%.

**Q.** And the half-life [18]?
**A.** Its half-life is 6.4 h.

**Q.** What about the inhibition [19] of the same compound?
**A.** Its inhibition is 12.2%.

**Q.** What about the inhibition [20] of the same compound?
**A.** The inhibition was 64.2%.

**Q.** And the EC50 [21]?
**A.** Its EC50 is 520 nM.

**Q.** What about the inhibition [22] of the same compound?
**A.** Its inhibition is 90.8%.

**Q.** And the remaining at 0.5 h, 10 µM [23]?
**A.** The remaining at 0.5 h, 10 µM was 100%.

**Q.** What about the inhibition [24] of the same compound?
**A.** The inhibition was 29.5%.

**Q.** What about the inhibition [25] of the same compound?
**A.** The inhibition was 5.26%.

**Q.** What about the inhibition [26] of the same compound?
**A.** Its inhibition is -9.88%.

**Q.** And the inhibition [27]?
**A.** The inhibition was 27%.

**Q.** And the clearance [28]?
**A.** Its clearance is 90 mL/min/kg.

**Q.** What about the remaining at 2 h, 10 µM [29] of the same compound?
**A.** The remaining at 2 h, 10 µM was 98.4%.
